Experimental data published in patent US6372770B1, “Benzoxazoles” (Euro-Celtique, S.A., priority 1994, dated 2002).
Counter-ions that a name gives are not always drawn.

Legend:
PDE IV = system: T1, PDE IV; test: Type IV PDE inhibition, hydrolysis of [3H]-cyclic AMP; format: biochemical, bovine; settings: Type IV PDE isolated from bovine tracheal smooth muscle; 0.2 μM cyclic AMP; read-out: PDE IV IC50
T1 construct: PDE IV IC50; other: Type IV PDE isolated from bovine tracheal smooth muscle; rolipram run in the
Description: The PDE IV inhibitory compounds of the present invention may be examined for their PDE IV inhibitory effects via the techniques set forth in the following examples, wherein the ability of the compounds to inhibit PDE IV isolated from bovine tracheal smooth muscle is set forth.
The Type IV PDE is isolated from bovine tracheal smooth muscle using a procedure similar to that previously described by Silver, P. J. et al., Eur. J. Pharmacol. 150:85,1988.(1). Briefly, smooth muscle from bovine trachea is minced and homogenized using a polytron in 10 volumes of an extraction buffer containing 10 mM Tris-acetate (pH 7.5), 2 mM magnesium chloride, 1 mM dithiothreitol and 2,000 units/ml of aprotinin. This and all subsequent procedures are performed at 0-4° C. The homogenate is sonicated and then centrifuged at 48,000×g for 30 minutes. The resulting supernatant is applied to a DEAE Trisacryl M column previously equilibrated with sodium acetate and dithiothreitol. After applications of the sample, the column is washed with sodium acetate/dithiothreitol, after whlich the different forms of PDE are eluted from the column using a linear Tris-HCl/NaCl gradient. Fractions containing Type IV PDE are collected, dialyzed and concentrated to 14% of the original volume. The concentrated fractions are diluted to 50% with ethylene glycol and stored at −20° C.
(§1) Enzyme activity is assessed by measuring the hydrolysis of [^3H]-cyclic AMP, as described by Thompson, W. J. et al., Adv. Cyclic Nucleotide Res. 10:69, 1979. The cyclic AMP concentration used in this assay is 0.2 μM, which approximates the Km value. Protein concentration is adjusted to ensure that no more than 15% of the available substrate is hydrolyzed during the incubation period.
(§2) All test compounds are dissolved in dimethyl sulfoxide (final concentration of 2.5%). This concentration of dimethyl sulfoxide inhibits enzyme activity by approximately 10%.

PDE III = target: T2, PDE III (Homo sapiens, UniProt Q14432); test: Type III PDE inhibition, hydrolysis of [3H]-cyclic AMP; format: biochemical; settings: for IC50: Type III PDE isolated from human platelets, 0.2 μM cyclic AMP
T2 construct: Fractions containing PDE III activity are pooled and dialyzed overnight; from tissue; host or cells: human platelets
Method: The Type III PDE is isolated from human platelets using a procedure similar to that previously described by Washer, R. E. et al., Biochem. Pharmacol., 35:787, 1986. Briefly, 1-2 units of platelets are suspended in an equal volume of buffer (20 mM Tris-HCl, pH 7.5, containing 2 mM magnesium acetate, 1 mM dithiothreitol, and 5 mM Na2EDTA). The proteinase inhibitor phenylmethyl-sulfonyl fluoride (PMSF) is also included in this buffer at a final concentration of 200 μM. The suspension is homogenized using a polytron and the homogenate centrifuged at 100,000×g for 60 minutes. This and all subsequent procedures are performed at 0-4° C. The supernatant is then filtered through four layers of gauze and applied to a DEAE-Trisacryl M column, previously equilibrated with buffer B (20 mM Tris-HCl, pH 7.5, containing 1 mM magnesium acetate, 1 mM dithiothreitol and 200 μM PMSF). After application of the sample, the column is washed with several bed volumes of buffer B, after which the different forms of PDE are eluted from the column using two successive linear NaCl gradients (0.05-0.15 M, 300 ml total; 0.15-0.40 M, 200 ml total). Five ml fractions are collected and assayed for cyclic AMP and cyclic GMP PDE activity. Fractions containing PDE III activity are pooled and dialyzed overnight against 4 L of buffer B. The dialyzed PDE III is then concentrated to 10% of the original volume, diluted to 50% with ethylene glycol monoethyl ether and stored at −20° C. PDE III can typically be retained for up to four weeks with little or no loss of activity.
as §1, with “approximates to” for “approximates”
as §2

T2 sequence (Q14432 whole entry): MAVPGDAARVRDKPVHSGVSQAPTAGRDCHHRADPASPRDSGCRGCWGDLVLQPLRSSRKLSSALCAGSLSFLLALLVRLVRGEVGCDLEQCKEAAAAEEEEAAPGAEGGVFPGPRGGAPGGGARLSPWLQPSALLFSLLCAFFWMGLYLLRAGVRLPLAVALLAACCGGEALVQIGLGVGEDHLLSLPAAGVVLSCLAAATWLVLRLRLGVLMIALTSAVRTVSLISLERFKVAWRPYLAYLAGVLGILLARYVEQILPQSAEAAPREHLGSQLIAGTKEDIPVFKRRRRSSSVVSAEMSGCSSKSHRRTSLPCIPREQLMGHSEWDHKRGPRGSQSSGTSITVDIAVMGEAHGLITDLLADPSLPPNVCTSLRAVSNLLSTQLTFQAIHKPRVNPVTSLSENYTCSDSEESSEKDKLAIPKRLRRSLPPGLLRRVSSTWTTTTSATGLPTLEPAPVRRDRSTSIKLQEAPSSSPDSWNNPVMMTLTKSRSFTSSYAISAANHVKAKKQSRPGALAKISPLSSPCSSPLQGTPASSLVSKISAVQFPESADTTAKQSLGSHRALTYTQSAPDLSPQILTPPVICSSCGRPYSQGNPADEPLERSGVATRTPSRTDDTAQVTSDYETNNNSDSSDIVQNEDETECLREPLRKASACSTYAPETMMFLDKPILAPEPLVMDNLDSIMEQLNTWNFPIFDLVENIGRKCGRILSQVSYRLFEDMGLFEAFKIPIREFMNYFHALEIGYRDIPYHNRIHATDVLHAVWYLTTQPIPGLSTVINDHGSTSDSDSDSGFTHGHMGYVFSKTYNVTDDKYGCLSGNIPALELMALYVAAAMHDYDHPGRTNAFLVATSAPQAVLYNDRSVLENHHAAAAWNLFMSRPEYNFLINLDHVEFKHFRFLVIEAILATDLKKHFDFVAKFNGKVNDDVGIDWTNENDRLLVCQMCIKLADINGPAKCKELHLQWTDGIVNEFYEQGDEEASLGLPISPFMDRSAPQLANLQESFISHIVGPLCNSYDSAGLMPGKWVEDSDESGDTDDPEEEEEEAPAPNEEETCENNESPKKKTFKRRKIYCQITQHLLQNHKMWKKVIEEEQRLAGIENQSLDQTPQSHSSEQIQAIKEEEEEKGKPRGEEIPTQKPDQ

Row | Compound | IC50 (PDE IV) | IC50 (PDE III) | inhibition at 10 µM (PDE III; at 10 μM)
1 | COc1ccc(CCc2nc3cc(Cl)ccc3o2)cc1OC [Example 43, 5-Chloro-2-[2-(3,4-dimethoxyphenyl)ethyl]Benzoxazole] | 16.3 µM | > 300 µM | 
2 | CC(C)(C)c1cc(Cc2nc3ccccc3o2)cc(C(C)(C)C)c1O [Example 45, 2-[4-Hydroxy-3,5-di-t-butyl-benzyl]Benzoxazole] | 19.5 µM | 72.4 µM | 
3 | Nc1cccc2nc(-c3cccc(Cl)c3)oc12 [Example 32] | 32.5 µM | > 300 µM | 
4 | 2-(3-cyclopentyloxy-4-methoxybenzyl)-5-chlorobenzoxazole-7-ethanal Oxime [Example 31] | 1.66 µM | > 300 µM | 
5 | COc1ccc(Cc2nc3c(OC(C)=O)cccc3o2)cc1OC1CCCC1 [Example 8, 4-Acetoxy-2-(3-cyclopentyloxy-4-methoxybenzyl)-benzoxazole] | 0.75 µM | 158 µM | 
6 | OCCCc1cccc2nc(Cc3ccccc3Cl)oc12 [Example 41, 2-(2-Chlorobenzyl)-7-(3-hydroxy-1-propyl)Benzoxazole] | 69.3 µM | 100 µM | 
7 | OCCCc1cc(Cl)cc2nc(Cc3cccc(Cl)c3)oc12 [Example 42, 3-[5-Chloro-2-(3-chlorobenzyl)benzoxazol-7-yl]propan-1-ol] | 16 µM | 48.6 µM | 
8 | COc1ccc(Cc2nc3cc(Cl)cc(CCO)c3o2)cc1OC1CCCC1 [Example 27, 2-(3-Cyclopentyloxy-4-methoxybenzyl)-5-chloro-7-(2-hydroxyethyl)Benzoxazole] | 0.65 µM | 38.1 µM | 
9 | COc1ccc(-c2nc3cc(Cl)ccc3o2)cc1OC [Example 44, 5-Chloro-2-(3,4-dimethoxyphenyl)Benzoxazole] | 19.3 µM | > 300 µM | 
10 | OCCCc1cc(Cl)cc2nc(Cc3ccccc3)oc12 [Example 37, 2-Benzyl-5-chloro-7-(3-hydroxy-1-propyl)Benzoxazole] | 39.1 µM | 77 µM | 
11 | 2-(3-Cyclopentyloxy-4-methoxybenzyl)-5-chloro-7-(2-hydroxyethyl)benzoxazole Carbamate [Example 28] | 0.7 µM | 36.8 µM | 
12 | CC(C)(C)c1cc(CCc2nc3ccccc3o2)cc(C(C)(C)C)c1O [Example 47, 2-[2-(4-Hydroxy-3,5-di-t-butyl-phenyl)]Ethylbenzoxazole] | 91.5 µM | > 300 µM | 
13 | COc1ccc(Cc2nc3cccc(NCc4ncc[nH]4)c3o2)cc1OC1CCCC1 [Example 35, 2-(3-Cyclopentyloxy-4-methoxybenzyl)-7-(2-imidazolylmethylamino)Benzoxazole] | 19.3 µM | > 300 µM | 
14 | C=CCc1cc(Cl)cc2nc(Cc3ccc(OC)c(OC4CCCC4)c3)oc12 [Example 1, 7-Allyl-5-chloro-2-(3-cyclopentyloxy-4-methoxybenzyl)-benzoxazole] |  | > 300 µM | 22%

More lines, now with the values ahead:

Row | IC50 (PDE IV) | IC50 (PDE III) | inhibition at 10 µM (PDE III; at 10 μM) | Compound
15 | 0.53 µM | > 300 µM |  | COc1ccc(Cc2nc3c(OCc4ccccn4)cccc3o2)cc1OC1CCCC1 [Example 10, 2-((3-Cyclopentyloxy-4-methoxy)benzyl)-4-(2-pyridylmethoxy)-benzoxazole Hydrochloride]
16 | 1.6 µM | 0.6 µM |  | COc1ccc(Cc2nc3cccc([N+](=O)[O-])c3o2)cc1OC1CCCC1 [Example 6, 2-(3-Cyclopentyloxy-4-methoxybenzyl)-7-nitro-benzoxazole]
17 | 0.92 µM | > 300 µM |  | CCCc1cc(Cl)cc2nc(Cc3ccc(OC)c(OC4CCCC4)c3)oc12 [Example 40, 2-(3-Cyclopentyloxy-4-methoxybenzyl)-5-chloro-7-propylbenzoxazole]
18 | 0.47 µM | 2.8 µM |  | COc1ccc(Cc2nc3cccc(Br)c3o2)cc1OC1CCCC1 [Example 19, 2-((3-Cyclopentyloxy-4-methoxy)benzyl)-7-bromo-benzoxazole]
19 | 1 µM | 33.2 µM |  | COc1ccc(Cc2nc3cccc(NCc4cccnc4)c3o2)cc1OC1CCCC1 [Example 34, 2-(3-Cyclopentyloxy-4-methoxybenzyl)-7-(3-pyridylmethylamino)Benzoxazole]
20 | 15.2 µM | 53.9 µM |  | COCCCc1cc(Cl)cc2nc(Cc3ccccc3Cl)oc12 [Example 39, 2-(2-Chlorobenzyl)-5-chloro-7-(3-methoxy-1-propyl)Benzoxazole]
21 | 1.99 µM | 49.2 µM |  | COc1ccc(Cc2nc3c(OC)cccc3o2)cc1OC1CCCC1 [Example 14, 2-((3-Cyclopentyloxy-4-methoxy)benzyl)-4-methoxy-benzoxazole]
22 | 0.5 µM | 124 µM |  | COc1ccc(Cc2nc3c(O)cccc3o2)cc1OC1CCCC1 [Example 7, 2-(3-Cyclopentyloxy-4-methoxybenzyl)-4-hydroxy-benzoxazole]
23 | 0.07 µM |  |  | CC(C)(C)c1cc(Cc2nc3cccc(C#Cc4ccccn4)c3o2)cc(C(C)(C)C)c1O [Example 22]
24 | 5.4 µM | 107 µM |  | C=CCc1cc(Cl)cc2nc(Cc3ccccc3Cl)oc12 [Example 38, 2-(2-Chlorobenzyl)-5-chloro-7-allylbenzoxazole]
25 | 0.76 µM | 121 µM |  | COc1ccc(Cc2nc3cccc(NC(=O)c4ccccn4)c3o2)cc1OC1CCCC1 [Example 17, 2-((3-Cyclopentyloxy-4-methoxy)benzyl)-7-(2-pyridine-carbonylamino)-benzoxazole]
26 | 13.7 µM | 253 µM |  | COc1ccc(Cc2nc3cccc(N)c3o2)cc1OC1CCCC1 [Example 13, 7-Amino-2-((3-Cyclopentyloxy-4-methoxy)benzyl)-benzoxazole Hydrochloride]
27 | 9.1 µM | 173 µM |  | Clc1cccc(-c2nc3cccc(NCc4ccccn4)c3o2)c1 [Example 33, 2-(3-chlorophenyl)-7-(2-pyridylmethylamino)benzoxazole]
28 | 0.26 µM | 152 µM |  | CC(C)c1cc(Cc2nc3cccc(C#Cc4ccccn4)c3o2)cc(C(C)C)c1O [Example 23]
29 | 4.79 µM | 177 µM |  | COc1ccc(Cc2nc3cccc(NC(=O)c4cccnc4)c3o2)cc1OC1CCCC1 [Example 15, 2-((3-Cyclopentyloxy-4-methoxy)benzyl)-7-(nicotinoyl-amino)-benzoxazole]
30 | 0.01 µM |  |  | CC(C)(C)c1cc(Cc2nc3cc(Cl)cc(C#Cc4nccs4)c3o2)cc(C(C)(C)C)c1O [Example 3, 5-Chloro-2-(3,5-di-t-butyl-4-hydroxy-benzyl)-7-(2-(2-thiazolyl)-ethynyl)-benzoxazole]
31 | 11.2 µM | 100 µM |  | COc1ccc(Cc2nc3cc(Cl)cc(CC(=O)O)c3o2)cc1OC1CCCC1 [Example 29, 2-(3-Cyclopentyloxy-4-methoxybenzyl)-5-chlorobenzoxazole-7-acetic Acid]
32 | 2.92 µM | 128 µM |  | COc1ccc(Cc2nc3cc(Cl)cc(CC(N)=O)c3o2)cc1OC1CCCC1 [Example 30, 2-(3-Cyclopentyloxy-4-methoxybenzyl)-5-chlorobenzoxazole-7-acetamide]
33 | 3.03 µM | 34.3 µM |  | CC(C)c1cc(Cc2nc3c(O)cccc3o2)cc(C(C)C)c1O [Example 20, 2-((3,5-Di-isopropyl-4-hydroxy)benzyl)-4-hydroxy-benzoxazole]
34 | 0.01 µM |  |  | CC(C)(C)c1cc(Cc2nc3cc(Cl)cc(C#Cc4ccccn4)c3o2)cc(C(C)(C)C)c1O [Example 2, 5-Chloro-2-(3,5-di-t-butyl-4-hydroxy-benzyl)-7(2-(2-pyridyl)-ethynyl)-benzoxazole]
